Among the data in patent publication US20220106288A1, “NOVEL SULFONEUREA COMPOUNDS” (INFLAZOME LIMITED, priority 2018, published 2022) are IC50 values, retold here.

Where a name gives a salt, the structure may show the parent alone.

The target of experiment [1] is T1, NLRP3 (Homo sapiens, UniProt Q96P20). The experiment can be described thus: Human whole blood IL-1β release assay. It is filed as cell-based. Details: Human whole blood in Li-heparin tubes was obtained from healthy donors from a volunteer donor panel; from tissue; host or cells: human whole blood from healthy donors. The note with it: LPS 1 μg/ml, nigericin 10 μM, IL-1β AlphaLisa, read-out: HWB IC50. The protocol:
For systemic delivery, the ability to inhibit NLRP3 when the compounds are present within the bloodstream is of great importance. For this reason, the NLRP3 inhibitory activity of a number of compounds in human whole blood was investigated in accordance with the following protocol.
Human whole blood in Li-heparin tubes was obtained from healthy donors from a volunteer donor panel. • 1. […] Incubate for 3 hrs at 37° C., 5% CO2 • 4. Add 10 μl nigericin (Sigma #N7143) (10 μM FAC) to all wells • 5. Incubate for 1 hr at 37° C., 5% CO2 • 6. At the end of the incubation period, spin plates at 300 ×g for 5 mins to pellet cells and remove 20 μl of supernatant and add to 96-well v-bottom plates for IL-1β analysis (note: these plates containing the supernatants can be stored at −80° C. to be analysed at a later date) • 7. IL-1β was measured according to the manufacturer protocol (Perkin Elmer-AlphaLisa IL-1 Kit AL220F-5000) • 8. IC50 data is fitted to a non-linear regression equation (log inhibitor vs response-variable slope 4-parameters)

In experiment [2] the target is T1, NLRP3. The experiment in a line: THP-1 cells pyroptosis assay. It is filed as cell-based. Details: Seed THP-1 cells (25,000cells/well) containing 1.0 μg/ml LPS in 40 μl of RPMI medium; host or cells: THP-1 cells. The note with it: LPS 1 μg/ml, nigericin 5 μM, resazurin readout. The protocol: The cells were routinely passaged and grown to confluency (˜10^6 cells/ml). On the day of the experiment, THP-1 cells were harvested and resuspended into RPMI medium (without FBS). The cells were then counted and viability (>90%) checked by Trypan blue (Sigma #T8154). […] To this diluted cell solution was added LPS (Sigma #L4524) to give a 1 μg/ml Final Assay Concentration (FAC). 40 μl of the final preparation was aliquoted into each well of a 96-well plate. The plate thus prepared was used for compound screening.
The following method step-by-step assay was followed for compound screening. • 1. […] Incubate for 3 hrs at 37° C., 5% CO2 • 4. Add 5 μl nigericin (Sigma #N7143) (FAC 5 μM) to all wells • 5. Incubate for 1 hr at 37° C., 5% CO2 • 6. At the end of the incubation period, spin plates at 300×g for 3 mins and remove supernatant • 7. Then add 50 μl of resazurin (Sigma #R7017) (FAC 100 μM resazurin in RPMI medium without FBS) and incubate plates for a further 1-2 hrs at 37° C. and 5% CO2 • 8. […] IC50 data is fitted to a non-linear regression equation (log inhibitor vs response-variable slope 4-parameters)

T1 sequence (Q96P20 whole entry): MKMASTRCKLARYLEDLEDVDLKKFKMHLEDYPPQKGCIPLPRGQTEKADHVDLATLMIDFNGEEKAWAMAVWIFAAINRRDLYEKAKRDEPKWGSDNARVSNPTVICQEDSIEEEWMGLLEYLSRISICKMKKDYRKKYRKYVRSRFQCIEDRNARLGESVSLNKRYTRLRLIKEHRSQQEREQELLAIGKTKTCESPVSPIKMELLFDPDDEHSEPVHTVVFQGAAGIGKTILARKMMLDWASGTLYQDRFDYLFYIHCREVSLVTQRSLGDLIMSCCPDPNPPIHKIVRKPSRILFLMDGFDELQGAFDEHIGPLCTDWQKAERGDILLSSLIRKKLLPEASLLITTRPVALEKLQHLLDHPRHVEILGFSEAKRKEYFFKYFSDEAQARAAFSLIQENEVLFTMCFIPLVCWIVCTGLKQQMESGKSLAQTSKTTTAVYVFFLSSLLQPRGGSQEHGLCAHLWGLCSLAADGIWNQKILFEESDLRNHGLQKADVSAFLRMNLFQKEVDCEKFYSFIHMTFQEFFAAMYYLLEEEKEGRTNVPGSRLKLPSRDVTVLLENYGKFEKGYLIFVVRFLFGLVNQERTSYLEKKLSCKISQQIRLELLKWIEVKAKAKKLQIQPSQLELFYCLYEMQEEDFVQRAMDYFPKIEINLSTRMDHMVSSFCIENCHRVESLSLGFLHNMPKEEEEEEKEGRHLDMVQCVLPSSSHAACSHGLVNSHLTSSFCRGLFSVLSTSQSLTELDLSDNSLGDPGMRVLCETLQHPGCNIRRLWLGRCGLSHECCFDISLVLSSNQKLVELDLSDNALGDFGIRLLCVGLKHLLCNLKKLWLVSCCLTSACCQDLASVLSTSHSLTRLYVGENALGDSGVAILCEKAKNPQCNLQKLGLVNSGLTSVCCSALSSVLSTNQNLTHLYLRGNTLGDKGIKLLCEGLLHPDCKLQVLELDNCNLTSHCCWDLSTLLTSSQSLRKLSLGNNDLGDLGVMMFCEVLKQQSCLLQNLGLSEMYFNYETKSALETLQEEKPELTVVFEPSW

Consider `Cc1cc(-c2c(C)cc3c(c2NC(=O)NS(C)(=O)=O)CCC3)ccn1` [Example 1, N-((6-Methyl-5-(2-methylpyridin-4-yl)-2,3-dihydro-1H-inden-4-yl)carbamoyl)methanesulfonamide], for which the IC50 in experiment [1] and in experiment [2] was 500 to 1000 nM throughout.
Consider `Cc1cc2c(c(NC(=O)NS(C)(=O)=O)c1-c1ccncc1)CCC2` [Example 2], for which the IC50 was 250 to 500 nM in experiment [1] and not above 250 nM in experiment [2].
Take `Cc1cc2c(c(NC(=O)NS(C)(=O)=O)c1-c1ccnc(OC(F)F)c1)CCC2` [Example 3]: the IC50 in experiment [1] is 500 to 1000 nM; in experiment [2] it was not above 250 nM.
For `Cc1cc2c(c(NC(=O)NS(C)(=O)=O)c1-c1ccnc(OC3CC3)c1)CCC2` [Example 4] the same measures were 250 to 500 nM and not above 250 nM.
For `CCOc1cc(-c2c(C)cc3c(c2NC(=O)NS(C)(=O)=O)CCC3)ccn1` [Example 5] the same measures were 250 to 500 nM and not above 250 nM.
For `Cc1cc2c(c(NC(=O)NS(C)(=O)=O)c1-c1ccnc(O[C@H]3CC[C@@H](O)CC3)c1)CCC2` [Example 6] the same measures were not above 250 nM and not above 250 nM.
`COc1cc(-c2c(C)c(F)cc(C(C)C)c2NC(=O)NS(C)(=O)=O)ccn1` [Example 7]: the figures for the IC50 in experiment [1] and in experiment [2] were 500 to 1000 nM and 250 to 500 nM, respectively.
For `[2H]C([2H])([2H])Oc1cc(-c2c(C)c(F)cc(C(C)C)c2NC(=O)NS(C)(=O)=O)ccn1` [Example 8], the IC50 was 500 to 1000 nM in experiment [1] and 250 to 500 nM in experiment [2].
With `[2H]C([2H])([2H])Oc1cc(-c2c(C)cc3c(c2NC(=O)NS(C)(=O)=O)CCC3)ccn1` [Example 10], the IC50 in experiment [1] was 250 to 500 nM; in experiment [2] it was not above 250 nM.
For `COc1cc(-c2c(C)cc3c(c2NC(=O)NS(=O)(=O)c2ccccc2)CCC3)ccn1` [Example 11] the same measures were 1000 to 2000 nM and not above 250 nM.
Consider `COc1cc(-c2c(C)cc3c(c2NC(=O)NS(=O)(=O)C2CC2)CCC3)ccn1` [Example 12], for which the IC50 in experiment [1] was 500 to 1000 nM; in experiment [2], not above 250 nM.
Take `COc1cc(-c2c(C)cc3c(c2NC(=O)NS(=O)(=O)N(C)C)CCC3)ccn1` [Example 13]: the IC50 in experiment [1] is 500 to 1000 nM; in experiment [2], not above 250 nM.
For `Cc1cc2c(c(NC(=O)NS(C)(=O)=O)c1-c1ccnc(OC3CCCCC3)c1)CCC2` [Example 16], the values for the IC50 in experiment [1] and in experiment [2] were 1000 to 2000 nM and not above 250 nM, respectively.
For `Cc1cc2c(c(NC(=O)NS(=O)(=O)C(C)(C)C)c1-c1ccnc(OC3CCN(C)CC3)c1)CCC2` [Example 18], the IC50 was 2000 to 5000 nM in experiment [1] and not above 250 nM in experiment [2].
For `Cc1cc2c(c(NC(=O)NS(=O)(=O)c3ccccc3)c1-c1ccnc(OC3CCN(C)CC3)c1)CCC2` [Example 19] the same measures were 500 to 1000 nM and not above 250 nM.
For `Cc1cc2c(c(NC(=O)NS(C)(=O)=O)c1-c1ccnc(OC3CCN(C)CC3)c1C)CCC2` [Example 20] the same measures were 250 to 500 nM and 250 to 500 nM.
On to `Cc1cc2c(c(NC(=O)NS(=O)(=O)C3CC3)c1-c1ccnc(OC3CCN(C)CC3)c1)CCC2` [Example 21], for which the IC50 in experiment [1] and in experiment [2] was not above 250 nM in each case.
In the case of `Cc1cc2c(c(NC(=O)NS(C)(=O)=O)c1-c1ccnc(OC3CCOCC3)c1)CCC2` [Example 22], the IC50 in experiment [1] and in experiment [2] was not above 250 nM throughout.
As for `COCC(C)Oc1cc(-c2c(C)cc3c(c2NC(=O)NS(C)(=O)=O)CCC3)ccn1` (centres unmarked) [Example 25], the IC50 in experiment [1] is 250 to 500 nM; in experiment [2], not above 250 nM.
For `Cc1cc2c(c(NC(=O)NS(=O)(=O)N(C)C)c1-c1ccnc(OC3CCN(C)CC3)c1)CCC2` [Example 26], the IC50 in experiment [1] and in experiment [2] was not above 250 nM throughout.
In the case of `Cc1cc2c(c(NC(=O)NS(C)(=O)=O)c1-c1ccnc(OC3CCN(C)CC3)c1)CCC2` [Example 28], the IC50 in experiment [1] and in experiment [2] was not above 250 nM each time.
For `COc1cc(-c2c(C)c(F)cc(C(C)C)c2NC(=O)NS(=O)(=O)c2ccn(C3CC3)n2)ccn1` [Example 29], the IC50 is 1000 to 2000 nM in experiment [1] and not above 250 nM in experiment [2].
For `COc1cc(-c2c(NC(=O)NS(C)(=O)=O)c(C(C)C)cc(F)c2C2CC2)ccn1` [Example 31] the same measures were 1000 to 2000 nM and 500 to 1000 nM.
For `COc1cc(-c2c(F)c(F)cc(C(C)C)c2NC(=O)NS(C)(=O)=O)ccn1` [Example 33] the same measures were 1000 to 2000 nM and 500 to 1000 nM.
For `COc1cc(-c2c(C3CC3)cc3c(c2NC(=O)NS(C)(=O)=O)CCC3)ccn1` [Example 34], the IC50 in experiment [1] was 1000 to 2000 nM; in experiment [2] it was not above 250 nM.
`COc1cc(-c2c(C)cc3c(c2NC(=O)NS(=O)(=O)c2ccn(C4CC4)n2)CCC3)ccn1` [Example 35]: the results for the IC50 in experiment [1] and in experiment [2] were 500 to 1000 nM and not above 250 nM, respectively.
For the compound `Cc1cc2c(c(NC(=O)NS(C)(=O)=O)c1-c1ccnc(C#N)c1)CCC2` [Example 36], the IC50 in experiment [1] and in experiment [2] was 500 to 1000 nM in each case.
For the compound `CCc1c(F)cc(C(C)C)c(NC(=O)NS(C)(=O)=O)c1-c1ccnc(OC)c1` [Example 38], the half-inhibitory concentration (IC50) was in the range of 1000 to 2000 nM in experiment [1] and 250 to 500 nM in experiment [2].
For `COc1cc(-c2c(C)cc3c(c2NC(=O)NS(C)(=O)=O)CCC3)ccn1` [Example 40, N-((5-(2-Methoxypyridin-4-yl)-6-methyl-2,3-dihydro-1H-inden-4-yl)carbamoyl)methanesulfonamide, sodium salt] the same measures were 250 to 500 nM and not above 250 nM.
For `CCS(=O)(=O)NC(=O)Nc1c2c(cc(C)c1-c1ccnc(OC)c1)CCC2` [Example 42] the same measures were 250 to 500 nM and not above 250 nM.
Turning to `Cc1cc2c(c(NC(=O)NS(=O)(=O)c3ccn(C(C)C)n3)c1-c1ccnc(OC3CCN(C)CC3)c1)CCC2` [Example 44], the IC50 is 250 to 500 nM in experiment [1] and not above 250 nM in experiment [2].
For `Cc1cc2c(c(NC(=O)NS(=O)(=O)c3cc(C(C)(C)O)co3)c1-c1ccnc(OC3CCN(C)CC3)c1)CCC2` [Example 45] the same measures were 500 to 1000 nM and not above 250 nM.
For `Cc1nc(C(C)C)c(NC(=O)NS(=O)(=O)c2cc(C(C)(C)O)co2)n1-c1ccncc1` [Example 46, 4-(2-Hydroxypropan-2-yl)-N-((4-isopropyl-2-methyl-1-(pyridin-4-yl)-1H-imidazol-5-yl)carbamoyl)furan-2-sulfonamide, ammonium salt] the same measures were not above 250 nM and not above 250 nM.
For `Cc1nc(C(C)C)c(NC(=O)NS(=O)(=O)c2ccn(C3CC3)n2)n1-c1ccncc1` [Example 47, 1-Cyclopropyl-N-((4-isopropyl-2-methyl-1-(pyridin-4-yl)-1H-imidazol-5-yl)carbamoyl)-1H-pyrazole-3-sulfonamide] the same measures were 250 to 500 nM and 250 to 500 nM.
`COc1cc(-n2c(C)nc(C(C)C)c2NC(=O)NS(=O)(=O)c2cc(C(C)(C)O)co2)ccn1` [Example 48, 4-(2-Hydroxypropan-2-yl)-N-((4-isopropyl-1-(2-methoxypyridin-4-yl)-2-methyl-1H-imidazol-5-yl)carbamoyl)furan-2-sulfonamide]: the IC50 in experiment [1] and in experiment [2] was 250 to 500 nM throughout.
Take `Cc1nc(C(C)C)c(NC(=O)NS(=O)(=O)N(C)C2CCN(C)C2)n1-c1ccncc1` (centres unmarked) [Example 49, 1-(5-Isopropyl-2-methyl-3-(4-pyridyl)imidazol-4-yl)-3-(methyl-(1-methylpyrrolidin-3-yl)sulfamoyl)urea]: in experiment [2], the IC50 is 5000 to 10000 nM.
